Results on one cell line are retold here after the supplement of paper PMC10307832.

Common to all, as to assay: relative viability (nuclei count vs DMSO), 5 days (fraction); higher = more cells survive
Compound in assay [1]: C1COCCN1C2=NC(=NC3=C2OC4=C3C=CC=N4)C5=CC(=CC=C5)NC(=O)C6=CN=C(C=C6)N + O=C(CCCCCCC(=O)Nc1ccccc1)NO [Vorinostat] (partner 1 µM)
The essentials: (§1)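 Lung cancer cell lines were seeded in 1536-well plates and dosed by pin tool the next day, with either a single drug or a fixed anchor-drug dose combined with five library-drug doses (not always all listed) spaced in √10 steps. Five days later, one step fixed the cells and stained their nuclei (final 0.05% Triton X-100, 1% formaldehyde, 1 ug/ml Hoechst), and nuclei were counted on 4× images. Relative viability is the nuclei count in treated wells divided by the count in vehicle wells, and each value is the median of duplicate plates.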

Compound in assay [2]: CN1CCC(CNc2ccc3ncc(-c4cccc(OC(F)(F)F)c4)n3n2)CC1 [SGI-1776] + CC(C)C[C@H](NC(=O)[C@H](Cc1ccccc1)NC(=O)c1cnccn1)B(O)O [Bortezomib] (partner 0.002 µM)
The essentials:
as §1

Compound in assay [3]: CN1CCC(CNc2ccc3ncc(-c4cccc(OC(F)(F)F)c4)n3n2)CC1 [SGI-1776] + Cc1nc(Nc2ncc(C(=O)Nc3c(C)cccc3Cl)s2)cc(N2CCN(CCO)CC2)n1 [Dasatinib] (partner 0.075 µM)
The essentials:
as §1

Compound in assay [4]: Nc1ccccc1NC(=O)c1ccc(CNC(=O)OCc2cccnc2)cc1 [Entinostat] + N=C(N)NC(=N)NCCc1ccccc1 [Phenformin] (partner 250 µM)
The essentials:
as §1

For the cell line UMC-11, the relative viability in assay [1] (first compound 0.02 µM) is 0.415; in assay [1] (first compound 0.06325 µM), 0.382; in assay [1] (first compound 0.2 µM) it was 0.352; in assay [1] (first compound 0.6325 µM), 0.369; in assay [1] (first compound 2 µM), 0.264; in assay [2] (first compound 0.08 µM), 0.741. Moreover, the relative viability stood at 0.809 in assay [2] (first compound 0.8 µM); 0.647 in assay [2] (first compound 2.53 µM); 0.688 in assay [2] (first compound 8 µM); 0.449 in assay [3] (first compound 0.08 µM); 0.455 in assay [3] (first compound 0.8 µM); 0.615 in assay [3] (first compound 2.53 µM). Moreover, the relative viability in assay [3] (first compound 8 µM) was 0.392; in assay [4] (first compound 0.02 µM), 0.307; in assay [4] (first compound 0.06325 µM), 0.334; in assay [4] (first compound 0.2 µM), 0.347; in assay [4] (first compound 0.6325 µM) it was 0.21; in assay [4] (first compound 2 µM), 0.188.
